Data as given in US9402821B2, “Methods and pharmaceutical compositions for treatment of cystic fibrosis” (INSERM (Institut National de la sante et de la Recherche …, priority 2012, dated 2016).

Biological target: T1, ENaC (Homo sapiens, UniProt P37088+P51168+P51170)
T1 construct: endogenous in cells; host or cells: primary human nasal epithelial cells (HNEC)
T1 sequence (P37088 1-669): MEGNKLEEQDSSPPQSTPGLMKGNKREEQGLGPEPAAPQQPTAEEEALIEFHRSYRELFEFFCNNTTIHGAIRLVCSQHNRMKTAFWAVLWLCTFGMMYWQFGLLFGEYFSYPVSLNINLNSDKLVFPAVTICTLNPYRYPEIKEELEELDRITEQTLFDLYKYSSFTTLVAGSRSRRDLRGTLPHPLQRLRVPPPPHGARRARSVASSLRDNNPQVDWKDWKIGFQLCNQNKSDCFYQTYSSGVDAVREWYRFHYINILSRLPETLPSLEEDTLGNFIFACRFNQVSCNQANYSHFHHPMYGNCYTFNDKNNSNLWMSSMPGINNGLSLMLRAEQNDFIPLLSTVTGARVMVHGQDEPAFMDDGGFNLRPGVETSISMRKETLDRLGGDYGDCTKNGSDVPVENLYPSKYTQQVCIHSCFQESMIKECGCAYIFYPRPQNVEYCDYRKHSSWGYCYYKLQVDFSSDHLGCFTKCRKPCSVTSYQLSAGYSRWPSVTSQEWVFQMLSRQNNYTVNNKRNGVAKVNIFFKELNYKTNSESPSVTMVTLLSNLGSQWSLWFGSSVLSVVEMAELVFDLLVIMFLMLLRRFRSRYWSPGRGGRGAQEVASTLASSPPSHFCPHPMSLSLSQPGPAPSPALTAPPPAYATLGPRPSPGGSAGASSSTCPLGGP
T1 sequence (P51168 1-640): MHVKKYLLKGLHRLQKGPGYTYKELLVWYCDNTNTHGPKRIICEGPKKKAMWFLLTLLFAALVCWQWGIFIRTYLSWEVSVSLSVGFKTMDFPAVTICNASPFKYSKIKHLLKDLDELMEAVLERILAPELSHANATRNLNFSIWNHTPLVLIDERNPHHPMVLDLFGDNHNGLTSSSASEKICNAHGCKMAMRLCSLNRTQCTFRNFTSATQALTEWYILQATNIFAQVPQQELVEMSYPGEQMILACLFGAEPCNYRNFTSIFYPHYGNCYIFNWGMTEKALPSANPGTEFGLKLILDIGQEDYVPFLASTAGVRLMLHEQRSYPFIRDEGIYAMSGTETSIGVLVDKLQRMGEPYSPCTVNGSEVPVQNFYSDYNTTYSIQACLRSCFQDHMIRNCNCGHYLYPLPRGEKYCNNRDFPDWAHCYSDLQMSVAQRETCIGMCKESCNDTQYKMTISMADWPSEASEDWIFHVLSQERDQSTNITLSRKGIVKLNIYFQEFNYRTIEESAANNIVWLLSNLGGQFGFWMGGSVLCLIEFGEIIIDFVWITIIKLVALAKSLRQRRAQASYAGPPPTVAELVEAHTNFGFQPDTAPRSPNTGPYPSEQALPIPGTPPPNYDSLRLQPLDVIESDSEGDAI
T1 sequence (P51170 1-649): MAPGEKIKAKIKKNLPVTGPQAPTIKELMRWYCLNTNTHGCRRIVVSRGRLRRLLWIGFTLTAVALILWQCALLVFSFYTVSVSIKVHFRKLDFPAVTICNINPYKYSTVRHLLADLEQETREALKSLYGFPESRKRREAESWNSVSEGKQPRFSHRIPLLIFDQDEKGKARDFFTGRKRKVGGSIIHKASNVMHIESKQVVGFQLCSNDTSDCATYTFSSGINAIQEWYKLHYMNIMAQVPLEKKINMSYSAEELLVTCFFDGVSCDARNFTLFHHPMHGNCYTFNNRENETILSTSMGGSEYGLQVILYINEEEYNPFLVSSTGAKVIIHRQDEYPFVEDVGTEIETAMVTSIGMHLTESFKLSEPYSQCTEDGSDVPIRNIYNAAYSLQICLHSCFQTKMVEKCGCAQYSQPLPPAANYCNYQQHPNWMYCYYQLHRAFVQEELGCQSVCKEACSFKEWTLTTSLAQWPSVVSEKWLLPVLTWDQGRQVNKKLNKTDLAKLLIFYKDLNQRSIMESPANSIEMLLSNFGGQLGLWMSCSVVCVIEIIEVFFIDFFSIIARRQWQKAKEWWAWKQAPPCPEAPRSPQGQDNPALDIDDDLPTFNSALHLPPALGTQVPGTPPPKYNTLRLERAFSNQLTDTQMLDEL
Test: Short circuit current, amiloride sensitive transport in HNEC
Assay type: cell-based
Conditions: primary HNEC; 500 μM basolateral, 2 h
Procedure: B. Chloride activity in HeLa Wt cells was measured by MQAE assay, after 3 h of treatment by NSAID (500 μM) or diluent. CFTR activity was expressed in rate of UFA/sec, calculated by difference between ((Ft−F0)/t) with CFTR induction and ((Ft−F0)/t) without CFTR induction. […] C. Primary culture of human nasal epithelial cell (HNEC) grown on Snapwell filters (air-liquid interface) were exposed basolaterally to sulindac (500 μM) or vehicle for 2 h and immediately mounted into a voltage-clamp system to bioelectric measurements. Short circuit current was measured with addition of amiloride to evaluated amiloride sensitive transport or with forskolin and IBMX for induced cAMP-dependent Cl secretion.
Two cell models were used to the interface air-liquid model for ionic efflux assays by short circuit current and to dose the basolateral IL-8 secretion. Calu-3 are derived from lung adenocarcinoma and are able to polarized and express a high rate of endogenous CFTR. […] Transepithelial resistance and transepithelial potential difference were measured every 3 days using a microvoltmeter (World Precision Instruments, Astonbury, UK).
Cells were grown at 37° C. in a 5% CO2 incubator in DMEM with Glutamax (Invitrogen) and 10% fetal bovine serum (SVF). […] The effects of treatment in HNEC cultures on snapwell inserts were evaluated between days 10 and 16. […]

**Q.** For CC1=C(CC(=O)O)c2cc(F)ccc2/C1=C\c1ccc([S+](C)[O-])cc1 (stereo not shown) [sulindac, (Z)-5-fluoro-2-methyl-1-[p-(methylsulfinyl)benzylidene]-indene-3-acetic acid], which “ENaC activity (amiloride sensitive short circuit current)” value is on record?
**A.** not induced modification of ENaC activity
